14 compounds from patent EP1919471B1, “(INDOL-3-YL)-HETEROCYCLE DERIVATIVES AS AGONISTS OF THE CANNABINOID CB1 RECEPTOR” (Merck Sharp & Dohme B.V., priority 2005, dated 2007) can be followed below.

The target in one test is T1, human CB1 receptor (Homo sapiens, UniProt P21554).
T1 construct: expressed in transfected cells; host or cells: CHO (Chinese Hamster Ovary) cells
As to the kind of experiment: In-vitro determination of efficacy and potency at the human CB1 receptor expressed in CHO cells (luciferase reporter assay). The settings on record: CHO cells expressing the human CB1 receptor and a luciferase reporter gene; 5 h at 37 °C. Type of test: cell-based. How it is done:
Methods to determine receptor binding as well as in vitro biological activity of cannabinoid receptor modulators are well known in the art. In general, expressed receptor is contacted with the compound to be tested and binding or stimulation or inhibition of a functional response is measured. To measure a functional response isolated DNA encoding the CB1 receptor gene, preferably the human receptor, is expressed in suitable host cells. Such a cell might be the Chinese Hamster Ovary cell, but other cells are also suitable. Preferably the cells are of mammalian origin. Methods to construct recombinant CB1 expressing cell lines are well known in the art (Sambrook et al, Molecular Cloning: a Laboratory Manual, Cold Spring Harbor Laboratory Press, Cold Spring Harbor, latest edition). Expression of the receptor is attained by expression of the DNA encoding the desired protein. Techniques for ligation of additional sequences and construction of suitable expression systems are all, by now, well known in the art. Portions or all of the DNA encoding the desired protein can be constructed synthetically using standard solid phase techniques, preferably to include restriction sites for ease of ligation. Suitable control elements for transcription and translation of the included coding sequence can be provided to the DNA coding sequences. As is well known, expression systems are now available which are compatible with a wide variety of hosts, including prokaryotic hosts such as bacteria and eukaryotic hosts such as yeast, plant cells, insect cells, mammalian cells, avian cells and the like. Cells expressing the receptor are then contacted with the test compound to observe binding, or stimulation or inhibition of a functional response. Alternatively isolated cell membranes containing the expressed CB1 (or CB2) receptor may be used to measure binding of compound. For measurement of binding radioactively or fluorescently labelled compounds may be used. The most widely used radiolabelled cannabinoid probe is [^3H]CP55940, which has approximately equal affinity for CB1 and CB2 binding sites. Functional CB1 agonist activity may be measured by determining the second messenger response, such as for example measurement of receptor mediated changes in cAMP or MAPkinase pathways. Thus, such a method involves expression of the CB1 receptor on the cell surface of a host cell and exposing the cell to the test compound. The second messenger response is then measured. The level of second messenger will be reduced or increased, depending on the effect of the test compound upon binding to the receptor.
In-vitro determination of efficacy and potency at the human CB1 receptor expressed in CHO cells
Chinese Hamster Ovary (CHO) cells expressing the human CB1 receptor and a luciferase reporter gene were suspended in phenol red/serum free DMEM/F-12 nut mix containing penicillin/streptomycin (50U/50 µg/ml) and fungizone (1 µg/ml) and seeded into 96 well plates at a density of 3 x 10^4 cells per well (100 µl final volume). Cells were incubated overnight (approx. 18 h at 37°C, 5% CO2/95% air) prior to assay. The test compound (10 mM solution in dimethylsulfoxide) was diluted in F12 Nut Mix to give a range of stock solutions from 0.11 mM to 0.11 nM. The stock solutions (10 µl) were added directly to the relevant wells. The plates were incubated at 37 °C for 5 h to allow agonist-induced expression of the luciferase enzyme. Under subdued light, LucLite substrate (Packard; reconstituted as per manufacturer's instructions; 100 µl) was added to each well. Plates were covered with Top Seal and then incubated at room temperature for 5 minutes before counting on the Packard TopCount (single photon counting, 0.01 minute count time, 5 minute count delay). A "best-fit" curve was fitted by a minimum sum of squares method to the plot of counts per second (CPS) against compound concentration (M) to obtain an EC50 value. […]
A general note: Reporter assays use an easily measured gene product as a stand-in for the process of interest.

The subject of the next test is Mice. As to the kind of experiment: Formalin Paw Test in Mice. The format is in vivo. The conditions noted are these: Mus musculus, iv, administered intravenously 5 minutes before 5% formalin, Phase 2 = between 20 and 30 min after formalin injection, read-out: ED50, inhibition of the nociceptive behaviour of Phase 2. How it is done:
Formalin Paw Test in Mice
Four - six groups of six mice were treated with vehicle and one of four to five doses of the test compound (typically between 0.03, 0.1, 3 and 10 µmol/kg), administered intravenously into the tail vein (vehicle: 10% Tween-80 in saline; injection volume 10 ml/kg). This injection was followed 5 minutes later by 20 µl of 5% formalin, which was administered sub-cutaneously to the dorsum of the left hind paw. Immediately after formalin administration the animal was placed in a test chamber and data acquisition, using a detection device (Automated Nociception Analyser (ANA); Department of Anesthesiology, University of California, San Diego), was started, independently for each chamber. The nociceptive behaviour was measured as the number of counts (licking, lifting, biting and flinching actions) detected within the two phases of nociception (Yaksh et al, 2001). The nociceptive behaviour between 0 and 5 min after formalin injection (Phase 1) and between 20 and 30 min after formalin injection (Phase 2) was recorded and number of counts for each mouse, compared to the mean number of counts for the vehicle treated animals, was calculated. Once values for each mouse were obtained, the mean and s.e.m. were calculated for each treatment group. The percent inhibition data were then used to calculate ED50 values for Phase 1 and Phase 2.

Some results are limits rather than exact numbers.

By pEC50 is commonly meant the negative decadic logarithm of the EC50, by convention in mol/L. High values mean a low EC50, low ones a high EC50. Broadly, the EC50 is the concentration that produces a half-maximal response. High values mean a need for much substance, low ones an effect from little substance. As usually defined, the ED50 is the midpoint of the dose-response relation.

T1 sequence (P21554 whole entry): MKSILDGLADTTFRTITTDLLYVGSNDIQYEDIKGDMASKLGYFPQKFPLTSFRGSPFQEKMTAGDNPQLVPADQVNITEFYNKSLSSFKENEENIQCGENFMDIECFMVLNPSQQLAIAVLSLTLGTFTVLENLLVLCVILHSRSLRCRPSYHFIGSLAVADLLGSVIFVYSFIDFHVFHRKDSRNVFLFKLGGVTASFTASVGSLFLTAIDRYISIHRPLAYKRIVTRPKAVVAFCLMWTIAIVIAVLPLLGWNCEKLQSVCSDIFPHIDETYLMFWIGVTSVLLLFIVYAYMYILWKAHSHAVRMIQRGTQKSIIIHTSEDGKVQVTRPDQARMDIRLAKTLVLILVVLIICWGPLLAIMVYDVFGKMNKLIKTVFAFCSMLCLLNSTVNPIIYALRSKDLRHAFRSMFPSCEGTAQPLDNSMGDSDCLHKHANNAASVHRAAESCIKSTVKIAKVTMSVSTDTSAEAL

On human CB1 receptor, “7-Ethyl-3-[(5-{N-[4-(carboxamido)methyl]piperidin-1-yl}methyl)-([1,2,4]-thiadiazol-3-yl)]-1-(tetrahydropyran-4-yl)methyl-1H-indole [Example 12]” yielded a pEC50 of 6.9. Turning to `COCCN(Cc1nc(-c2cn(CC3CCOCC3)c3c(Cl)cccc23)ns1)S(C)(=O)=O` [Example 7, 7-Chloro-3-({5-[(N-{2-methoxy}ethyl)-(N-{methylsulfonyl})amino]methyl}-([1,2,4]-thiadiazol-3-yl))-1-(tetrahydropyran-4-yl)methyl-1H-indole], the EC50 at human CB1 receptor is 79.4 nM. Still for that read-out and setting: to `CCc1cccc2c(-c3nsc(CN(C)CC(N)=O)n3)cn(CC3CCOCC3)c12` [Example 9, 7-Ethyl-3-[(5-{[N-(carboxamido)methyl]-N-methylamino}methyl)-([1,2,4]-thiadiazol-3-yl)]-1-(tetrahydropyran-4-yl)methyl-1H-indole] belongs 126 nM. Turning to `CCc1cccc2c(-c3nsc(CN4CCC(C(=O)NCCO)CC4)n3)cn(CC3CCOCC3)c12` [Example 10A, 7-Ethyl-3-[(5-{4-[(N-{2-hydroxy}ethyl)carboxamido]piperidin-1-yl}methyl)-([1,2,4]-thiadiazol-3-yl)]-1-(tetrahydropyran-4-yl)methyl-1H-indole], the ED50 in the test with Mice is < 5 µmol/kg. This compound also showed a concentration giving a half-maximal response (EC50) on human CB1 receptor of 12.6 nM. Turning to `O=C(NCCO)[C@H]1CCCN(Cc2nc(-c3cn(CC4CCS(=O)(=O)CC4)c4c(Cl)cccc34)ns2)C1` [Example 13, (S)-7-Chloro-3-[(5-{[3-N-(2-hydroxyethyl)carboxamido]piperidin-1-yl}methyl)-([1,2,4]-thiadiazol-3-yl)]-1-(1,1-dioxo-hexahydrothiopyran-4-yl)methyl-1H-indole], the negative logarithm of the EC50 (pEC50) on human CB1 receptor is recorded as 6.9.

On to `CS(=O)(=O)N(CCO)Cc1nc(-c2cn(CC3CCOCC3)c3c(Cl)cccc23)ns1` [Example 15, 7-Chloro-3-({5-[(N-{2-hydroxy}ethyl)-(N-{methylsulfonyl})amino]methyl}-([1,2,4]-thiadiazol-3-yl))-1-(tetrahydropyran-4-yl)methyl-1H-indole], for which the ED50 in the test on Mice was < 5 µmol/kg. On human CB1 receptor, this compound gave a half-maximal effective concentration (EC50) of 20 nM.

In the case of `OCC1CCN(Cc2nnc(-c3cn(CC4CCCCC4)c4c(Cl)cccc34)o2)CC1` [Example 17, 7-Chloro-3-[(5-{4-[hydroxymethyl]piperidin-1-yl}methyl)-([1,3,4]-oxadiazol-2-yl)]-1-(cyclohexyl)methyl-1H-indole], the EC50 at human CB1 receptor was 126 nM.

Turning to `CS(=O)(=O)N1CCC[C@H]1c1nnc(-c2cn(CC3CCOCC3)c3c(Cl)cccc23)o1` [Example 18, (S)-7-Chloro-3-[(5-{N-methylsulfonyl}pyrrolidin-2-yl)-([1,3,4]-oxadiazol-2-yl)]-1-(tetrahydropyran-4-yl)methyl-1H-indole], on human CB1 receptor, the pEC50 is 7.2. Regarding `O=C(NCCO)C1CCN(Cc2nc(-c3cn(CC4CCOCC4)c4c(Cl)cccc34)no2)CC1` [Example 19, 7-Chloro-3-[(5-{4-[(N-{2-hydroxy}ethyl)carboxamido]piperidin-1-yl}methyl)-([1,2,4]oxadiazol-3-yl)]-1-(tetrahydropyran-4-yl)methyl-1H-indole], the ED50 with Mice is < 5 µmol/kg. On human CB1 receptor, the 50% effective concentration (EC50) was 79.4 nM.

For the compound `CN(CC(N)=O)Cc1nc(-c2cn(CC3CCOCC3)c3c(Cl)cccc23)no1` [Example 20, 7-Chloro-3-[(5-{[N-(carboxamido)methyl]-N-methylamino}methyl)-([1,2,4]oxadiazol-3-yl)]-1-(tetrahydropyran-4-yl)methyl-1H-indole], the ED50 with Mice was < 5 µmol/kg. The EC50 on human CB1 receptor is 39.8 nM. As to `CN(CC(=O)NCC(N)=O)Cc1nc(-c2cn(CC3CCOCC3)c3c(Cl)cccc23)no1` [Example 20A], the concentration giving a half-maximal response (EC50) at human CB1 receptor is 31.6 nM. That is a double-digit nanomolar value. `CN(CC(=O)NCCO)Cc1nc(-c2cn(CC3CCOCC3)c3c(Cl)cccc23)no1` [Example 20B, 7-Chloro-3-({5-[(N-{[N-(2-hydroxyethyl)]carboxamido}methyl)-N-methylamino]methyl}-[1,2,4]oxadiazol-3-yl)-1-(tetrahydropyran-4-yl)methyl-1H-indole] gave a 50% effective concentration (EC50) on human CB1 receptor of 50.1 nM.

With `COCC(=O)NCc1nc(-c2cn(CC3CCOCC3)c3c(Cl)cccc23)no1` [Example 24, 7-Chloro-3-[(5-{[N-methoxymethylformyl]amino}methyl)-([1,2,4]-oxadiazol-3-yl)]-1-(tetrahydropyran-4-yl)methyl-1H-indole], the EC50 on human CB1 receptor was 200 nM.

For `CN(C)S(=O)(=O)N(CCO)Cc1nc(-c2cn(CC3CCOCC3)c3c(Cl)cccc23)no1` [Example 25, 7-Chloro-3-[(5-{N-(N',N'-dimethylsulfonamido)}-(N-{2-hydroxy}ethylamino)methyl)-([1,2,4]-oxadiazol-3-yl)]-1-(tetrahydropyran-4-yl)methyl-1H-indole], the midpoint of the response at human CB1 receptor, the EC50, lay at 100 nM.
